In PubChem BioAssay AID2060624 (Molecular Pharmacology Branch, DTP, NCI, 2025):
pIC50: −log10 of the molar value.

Test system: 217524-143-R1-J4-PDC spheroids with HUVEC/MSC, viability
Assay: Anticancer human tumor 217524-143-R1-J4-PDC patient-derived pancreatic carcinoma cell line growth inhibition [CLK]
Details: for pIC50: curve of first compound; for viability, T/C: stronger effect = lower value
In short: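 Patient-derived tumor cells grown as complex spheroids with HUVEC endothelial cells and mesenchymal stem cells, treated with drug combinations. Concentrations descend in half-log steps from near clinical Cmax, or from 10 microM if Cmax unknown.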

[1] = second compound 0.0316 µM, first compound 0.0316 µM
[2] = second compound 0.0316 µM, first compound 0.1 µM
[3] = second compound 0.0316 µM, first compound 0.316 µM
[4] = second compound 0.0316 µM, first compound 1 µM
[5] = second compound 0.0316 µM, first compound 3.16 µM
[6] = second compound 0.0316 µM, first compound 10 µM
[7] = second compound 0.1 µM, first compound 0.0316 µM
[8] = second compound 0.1 µM, first compound 0.1 µM
[9] = second compound 0.1 µM, first compound 0.316 µM
[10] = second compound 0.1 µM, first compound 1 µM
[11] = second compound 0.1 µM, first compound 3.16 µM
[12] = second compound 0.1 µM, first compound 10 µM
[13] = second compound 0.316 µM, first compound 0.0316 µM
[14] = second compound 0.316 µM, first compound 0.1 µM
[15] = second compound 0.316 µM, first compound 0.316 µM
[16] = second compound 0.316 µM, first compound 1 µM
[17] = second compound 0.316 µM, first compound 3.16 µM
[18] = second compound 0.316 µM, first compound 10 µM
[19] = second compound 1 µM, first compound 0.0316 µM
[20] = second compound 1 µM, first compound 0.1 µM
[21] = second compound 1 µM, first compound 0.316 µM
[22] = second compound 1 µM, first compound 1 µM
[23] = second compound 1 µM, first compound 3.16 µM
[24] = second compound 1 µM, first compound 10 µM
[25] = second compound 3.16 µM, first compound 0.0316 µM
[26] = second compound 3.16 µM, first compound 0.1 µM
[27] = second compound 3.16 µM, first compound 0.316 µM
[28] = second compound 3.16 µM, first compound 1 µM
[29] = second compound 3.16 µM, first compound 3.16 µM
[30] = second compound 3.16 µM, first compound 10 µM
[31] = second compound 10 µM, first compound 0.0316 µM
[32] = second compound 10 µM, first compound 0.1 µM
[33] = second compound 10 µM, first compound 0.316 µM
[34] = second compound 10 µM, first compound 1 µM
[35] = second compound 10 µM, first compound 3.16 µM
[36] = second compound 10 µM, first compound 10 µM
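Note: spheroids exposed to agents for seven days before reading.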
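Throughout, for viability, T/C: 100% = DMSO vehicle control viability.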

CC1(C)CCC(CN2CCN(c3ccc(C(=O)NS(=O)(=O)c4ccc(NCC5CCOCC5)c([N+](=O)[O-])c4)c(Oc4cnc5[nH]ccc5c4)c3)CC2)=C(c2ccc(Cl)cc2)C1 + CNC(=O)c1ccc(Nc2nc(OC3CCCC3)c3c(-c4ccc5nc(C)oc5c4)c[nH]c3n2)c(OC)c1
pIC50 (second compound 0.0316 µM): < 5.00
pIC50 (second compound 0.1 µM): > 7.50
pIC50 (second compound 0.316 µM): > 7.50
pIC50 (second compound 1 µM): > 7.50
pIC50 (second compound 3.16 µM): > 7.50
pIC50 (second compound 10 µM): > 7.50
viability, T/C [1]: 86.2%
viability, T/C [2]: 87.7%
viability, T/C [3]: 81.2%
viability, T/C [4]: 79%
viability, T/C [5]: 88.5%
viability, T/C [6]: 79.3%
viability, T/C [7]: 42.1%
viability, T/C [8]: 45%
viability, T/C [9]: 38.1%
viability, T/C [10]: 46.1%
viability, T/C [11]: 39.1%
viability, T/C [12]: 37.7%
viability, T/C [13]: 34.1%
viability, T/C [14]: 40.7%
viability, T/C [15]: 38.7%
viability, T/C [16]: 38.2%
viability, T/C [17]: 36.9%
viability, T/C [18]: 37.1%
viability, T/C [19]: 24.4%
viability, T/C [20]: 29.3%
viability, T/C [21]: 31.6%
viability, T/C [22]: 27.4%
viability, T/C [23]: 31.4%
viability, T/C [24]: 25.9%
viability, T/C [25]: 27.4%
viability, T/C [26]: 28.9%
viability, T/C [27]: 24.1%
viability, T/C [28]: 27.2%
viability, T/C [29]: 29.1%
viability, T/C [30]: 22.3%
viability, T/C [31]: 23.1%
viability, T/C [32]: 25.7%
viability, T/C [33]: 24.9%
viability, T/C [34]: 26.4%
viability, T/C [35]: 26.7%
viability, T/C [36]: 24.9%

CC1COCCN1c1cc(C2(S(C)(=N)=O)CC2)nc(-c2ccnc3[nH]ccc23)n1 (stereo not drawn) + CNC(=O)c1ccc(Nc2nc(OC3CCCC3)c3c(-c4ccc5nc(C)oc5c4)c[nH]c3n2)c(OC)c1
pIC50 (second compound 0.0316 µM): 5.71
pIC50 (second compound 0.1 µM): > 7.50
pIC50 (second compound 0.316 µM): > 7.50
pIC50 (second compound 1 µM): > 7.50
pIC50 (second compound 3.16 µM): > 7.50
pIC50 (second compound 10 µM): > 7.50
viability, T/C [1]: 85.7%
viability, T/C [2]: 93.5%
viability, T/C [3]: 71.4%
viability, T/C [4]: 76.3%
viability, T/C [5]: 31.8%
viability, T/C [6]: 22.5%
viability, T/C [7]: 36.8%
viability, T/C [8]: 43.5%
viability, T/C [9]: 37.8%
viability, T/C [10]: 29.2%
viability, T/C [11]: 26.5%
viability, T/C [12]: 19.7%
viability, T/C [13]: 42.2%
viability, T/C [14]: 32.4%
viability, T/C [15]: 34.4%
viability, T/C [16]: 28.1%
viability, T/C [17]: 20.1%
viability, T/C [18]: 15.1%
viability, T/C [19]: 29.9%
viability, T/C [20]: 27.7%
viability, T/C [21]: 28.9%
viability, T/C [22]: 18.1%
viability, T/C [23]: 16.3%
viability, T/C [24]: 12.3%
viability, T/C [25]: 26.7%
viability, T/C [26]: 26%
viability, T/C [27]: 24.7%
viability, T/C [28]: 20.2%
viability, T/C [29]: 10.9%
viability, T/C [30]: 9.73%
viability, T/C [31]: 28.1%
viability, T/C [32]: 26.4%
viability, T/C [33]: 21.7%
viability, T/C [34]: 17.6%
viability, T/C [35]: 12.9%
viability, T/C [36]: 8.77%

NC(=O)C(=Cn1cnc(-c2cc(C(F)(F)F)cc(C(F)(F)F)c2)n1)c1cncnc1 + CNC(=O)c1ccc(Nc2nc(OC3CCCC3)c3c(-c4ccc5nc(C)oc5c4)c[nH]c3n2)c(OC)c1
pIC50 (second compound 0.0316 µM): 7.78
pIC50 (second compound 0.1 µM): > 8.02
pIC50 (second compound 0.316 µM): > 8.02
pIC50 (second compound 1 µM): > 8.02
pIC50 (second compound 3.16 µM): > 8.02
pIC50 (second compound 10 µM): > 8.02
viability, T/C (second compound 0.0316 µM, first compound 0.00949 µM): 60.5%
viability, T/C (second compound 0.0316 µM, first compound 0.03 µM): 38.8%
viability, T/C (second compound 0.0316 µM, first compound 0.0949 µM): 22.9%
viability, T/C (second compound 0.0316 µM, first compound 0.3 µM): 25.2%
viability, T/C (second compound 0.0316 µM, first compound 0.949 µM): 26.6%
viability, T/C (second compound 0.0316 µM, first compound 3 µM): 20.1%
viability, T/C (second compound 0.1 µM, first compound 0.00949 µM): 29.9%
viability, T/C (second compound 0.1 µM, first compound 0.03 µM): 28.1%
viability, T/C (second compound 0.1 µM, first compound 0.0949 µM): 21%
viability, T/C (second compound 0.1 µM, first compound 0.3 µM): 24.4%
viability, T/C (second compound 0.1 µM, first compound 0.949 µM): 23%
viability, T/C (second compound 0.1 µM, first compound 3 µM): 18.7%
viability, T/C (second compound 0.316 µM, first compound 0.00949 µM): 23.2%
viability, T/C (second compound 0.316 µM, first compound 0.03 µM): 18.9%
viability, T/C (second compound 0.316 µM, first compound 0.0949 µM): 16.9%
viability, T/C (second compound 0.316 µM, first compound 0.3 µM): 17.7%
viability, T/C (second compound 0.316 µM, first compound 0.949 µM): 18.9%
viability, T/C (second compound 0.316 µM, first compound 3 µM): 13.2%
viability, T/C (second compound 1 µM, first compound 0.00949 µM): 18.8%
viability, T/C (second compound 1 µM, first compound 0.03 µM): 12.9%
viability, T/C (second compound 1 µM, first compound 0.0949 µM): 11.7%
viability, T/C (second compound 1 µM, first compound 0.3 µM): 11.5%
viability, T/C (second compound 1 µM, first compound 0.949 µM): 10.9%
viability, T/C (second compound 1 µM, first compound 3 µM): 8.56%
viability, T/C (second compound 3.16 µM, first compound 0.00949 µM): 14.1%
viability, T/C (second compound 3.16 µM, first compound 0.03 µM): 12.6%
viability, T/C (second compound 3.16 µM, first compound 0.0949 µM): 9.81%
viability, T/C (second compound 3.16 µM, first compound 0.3 µM): 8.7%
viability, T/C (second compound 3.16 µM, first compound 0.949 µM): 6.96%
viability, T/C (second compound 3.16 µM, first compound 3 µM): 6.45%
viability, T/C (second compound 10 µM, first compound 0.00949 µM): 14.2%
viability, T/C (second compound 10 µM, first compound 0.03 µM): 12%
viability, T/C (second compound 10 µM, first compound 0.0949 µM): 9.72%
viability, T/C (second compound 10 µM, first compound 0.3 µM): 7.3%
viability, T/C (second compound 10 µM, first compound 0.949 µM): 6.09%
viability, T/C (second compound 10 µM, first compound 3 µM): 5.49%

Nc1ccccc1NC(=O)c1ccc(CNC(=O)OCc2cccnc2)cc1 + CNC(=O)c1ccc(Nc2nc(OC3CCCC3)c3c(-c4ccc5nc(C)oc5c4)c[nH]c3n2)c(OC)c1
pIC50 (second compound 0.0316 µM): 5.30
pIC50 (second compound 0.1 µM): 5.41
pIC50 (second compound 0.316 µM): > 7.50
pIC50 (second compound 1 µM): > 7.50
pIC50 (second compound 3.16 µM): > 7.50
pIC50 (second compound 10 µM): > 7.50
viability, T/C [1]: 109%
viability, T/C [2]: 99%
viability, T/C [3]: 97.3%
viability, T/C [4]: 87.7%
viability, T/C [5]: 59.2%
viability, T/C [6]: 34%
viability, T/C [7]: 50.3%
viability, T/C [8]: 50.2%
viability, T/C [9]: 57.3%
viability, T/C [10]: 62.1%
viability, T/C [11]: 53%
viability, T/C [12]: 32%
viability, T/C [13]: 37.9%
viability, T/C [14]: 43%
viability, T/C [15]: 47.8%
viability, T/C [16]: 60.5%
viability, T/C [17]: 53.2%
viability, T/C [18]: 29.9%
viability, T/C [19]: 35.8%
viability, T/C [20]: 35.9%
viability, T/C [21]: 49.5%
viability, T/C [22]: 46.2%
viability, T/C [23]: 38.4%
viability, T/C [24]: 22.3%
viability, T/C [25]: 33.1%
viability, T/C [26]: 30.3%
viability, T/C [27]: 34.6%
viability, T/C [28]: 45%
viability, T/C [29]: 40.3%
viability, T/C [30]: 19.3%
viability, T/C [31]: 30.4%
viability, T/C [32]: 25.9%
viability, T/C [33]: 39.4%
viability, T/C [34]: 38.6%
viability, T/C [35]: 37.4%
viability, T/C [36]: 13.3%
